Experimental data from PubChem BioAssay (NCI).
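Exposure lasted 48 hours, with cells grown in 96-well plates and compounds tested at five concentrations. GI50 = concentration required for 50% inhibition of growth. Definition used: TGI = concentration required for complete inhibition of growth.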

Columns and labels:
Assay in all cases: NCI anticancer screen, dose series, 48 h
786-0 renal = system: 786-0 renal
A498 renal = system: A498 renal
A549 NSCLC = system: A549 NSCLC
BT-549 breast = system: BT-549 breast
CCRF-CEM leukemia = system: CCRF-CEM leukemia
COLO 205 colon = system: COLO 205 colon
DU-145 prostate = system: DU-145 prostate
EKVX NSCLC = system: EKVX NSCLC
HCC-2998 colon = system: HCC-2998 colon
HCT-116 colon = system: HCT-116 colon
HCT-15 colon = system: HCT-15 colon
HL-60(TB) leukemia = system: HL-60(TB) leukemia
HOP-62 NSCLC = system: HOP-62 NSCLC
HOP-92 NSCLC = system: HOP-92 NSCLC
HS 578T breast = system: HS 578T breast
HT29 colon = system: HT29 colon
K-562 leukemia = system: K-562 leukemia
LOX IMVI melanoma = system: LOX IMVI melanoma
M14 melanoma = system: M14 melanoma
MALME-3M melanoma = system: MALME-3M melanoma
MCF7 breast = system: MCF7 breast
MDA-MB-231 breast = system: MDA-MB-231 breast
MOLT-4 leukemia = system: MOLT-4 leukemia
NCI-H226 lung = system: NCI-H226 lung
NCI-H23 lung = system: NCI-H23 lung
NCI-H460 lung = system: NCI-H460 lung
NCI-H522 lung = system: NCI-H522 lung
NCI/ADR-RES ovarian = system: NCI/ADR-RES ovarian
OVCAR-3 ovarian = system: OVCAR-3 ovarian
OVCAR-4 ovarian = system: OVCAR-4 ovarian
OVCAR-5 ovarian = system: OVCAR-5 ovarian
OVCAR-8 ovarian = system: OVCAR-8 ovarian
RPMI-8226 leukemia = system: RPMI-8226 leukemia
RXF 393 renal = system: RXF 393 renal
SF-268 CNS = system: SF-268 CNS
SF-295 CNS = system: SF-295 CNS
SF-539 CNS = system: SF-539 CNS
SK-MEL-2 melanoma = system: SK-MEL-2 melanoma
SK-MEL-28 melanoma = system: SK-MEL-28 melanoma
SK-MEL-5 melanoma = system: SK-MEL-5 melanoma
SK-OV-3 ovarian = system: SK-OV-3 ovarian
SNB-19 CNS = system: SNB-19 CNS
SNB-75 CNS = system: SNB-75 CNS
SR leukemia = system: SR leukemia
SW-620 colon = system: SW-620 colon
T-47D breast = system: T-47D breast
TK-10 renal = system: TK-10 renal
U251 CNS = system: U251 CNS
UACC-257 melanoma = system: UACC-257 melanoma
UACC-62 melanoma = system: UACC-62 melanoma

Q: With CCc1nc2ccc(Cc3ccc(C(=O)NO)cc3)cc2c(=O)n1CCc1ccccc1 as the compound, how does the GI50 (786-0 renal) read?
A: The GI50 was 1710 nM.

Q: And the TGI (786-0 renal)?
A: The TGI was 3410 nM.

Q: What about the GI50 (A498 renal) of the same compound?
A: The GI50 was 364 nM.

Q: What about the TGI (A498 renal) of the same compound?
A: Its TGI is 1930 nM.

Q: And the GI50 (A549 NSCLC)?
A: The GI50 was 1150 nM.

Q: And the TGI (A549 NSCLC)?
A: Its TGI is 2990 nM.

Q: And the GI50 (BT-549 breast)?
A: The GI50 was 1730 nM.

Q: What about the TGI (BT-549 breast) of the same compound?
A: The TGI was 4790 nM.

Q: What about the GI50 (CCRF-CEM leukemia) of the same compound?
A: Its GI50 is 568 nM.

Q: And the TGI (CCRF-CEM leukemia)?
A: The TGI was over 100000 nM.

Q: And the GI50 (COLO 205 colon)?
A: The GI50 was 871 nM.

Q: And the TGI (COLO 205 colon)?
A: Its TGI is 2550 nM.

Q: What about the GI50 (DU-145 prostate) of the same compound?
A: Its GI50 is 1090 nM.

Q: What about the TGI (DU-145 prostate) of the same compound?
A: Its TGI is 7810 nM.

Q: And the GI50 (EKVX NSCLC)?
A: Its GI50 is 1210 nM.

Q: What about the TGI (EKVX NSCLC) of the same compound?
A: The TGI was 3140 nM.

Q: What about the GI50 (HCC-2998 colon) of the same compound?
A: The GI50 was 1440 nM.

Q: And the TGI (HCC-2998 colon)?
A: Its TGI is 3100 nM.

Q: And the GI50 (HCT-116 colon)?
A: Its GI50 is 388 nM.

Q: And the TGI (HCT-116 colon)?
A: The TGI was 1570 nM.

Q: And the GI50 (HCT-15 colon)?
A: The GI50 was 528 nM.

Q: What about the TGI (HCT-15 colon) of the same compound?
A: Its TGI is 3070 nM.

Q: What about the GI50 (HL-60(TB) leukemia) of the same compound?
A: The GI50 was 2250 nM.

Q: What about the TGI (HL-60(TB) leukemia) of the same compound?
A: Its TGI is 83100 nM.

Q: And the GI50 (HOP-62 NSCLC)?
A: Its GI50 is 1320 nM.

Q: And the TGI (HOP-62 NSCLC)?
A: The TGI was 2860 nM.

Q: What about the GI50 (HOP-92 NSCLC) of the same compound?
A: The GI50 was 1360 nM.

Q: What about the TGI (HOP-92 NSCLC) of the same compound?
A: Its TGI is 2980 nM.

Q: And the GI50 (HS 578T breast)?
A: The GI50 was 1590 nM.

Q: And the TGI (HS 578T breast)?
A: The TGI was 7400 nM.

Q: What about the GI50 (HT29 colon) of the same compound?
A: Its GI50 is 919 nM.

Q: What about the TGI (HT29 colon) of the same compound?
A: The TGI was 4500 nM.

Q: What about the GI50 (K-562 leukemia) of the same compound?
A: Its GI50 is 1020 nM.

Q: And the TGI (K-562 leukemia)?
A: The TGI was over 100000 nM.

Q: What about the GI50 (LOX IMVI melanoma) of the same compound?
A: The GI50 was 1160 nM.

Q: What about the TGI (LOX IMVI melanoma) of the same compound?
A: Its TGI is 2500 nM.

Q: And the GI50 (M14 melanoma)?
A: Its GI50 is 1270 nM.

Q: And the TGI (M14 melanoma)?
A: Its TGI is 3240 nM.

Q: And the GI50 (MALME-3M melanoma)?
A: Its GI50 is 586 nM.

Q: And the TGI (MALME-3M melanoma)?
A: The TGI was 2100 nM.

Q: What about the GI50 (MCF7 breast) of the same compound?
A: Its GI50 is 1340 nM.

Q: What about the TGI (MCF7 breast) of the same compound?
A: The TGI was 6820 nM.

Q: And the GI50 (MDA-MB-231 breast)?
A: Its GI50 is 1310 nM.

Q: And the TGI (MDA-MB-231 breast)?
A: The TGI was 3980 nM.

Q: And the GI50 (MOLT-4 leukemia)?
A: Its GI50 is 637 nM.

Q: What about the TGI (MOLT-4 leukemia) of the same compound?
A: The TGI was 16700 nM.

Q: And the GI50 (NCI-H226 lung)?
A: Its GI50 is 1240 nM.

Q: And the TGI (NCI-H226 lung)?
A: Its TGI is 3050 nM.

Q: And the GI50 (NCI-H23 lung)?
A: The GI50 was 1110 nM.

Q: What about the TGI (NCI-H23 lung) of the same compound?
A: Its TGI is 3890 nM.

Q: What about the GI50 (NCI-H460 lung) of the same compound?
A: Its GI50 is 520 nM.

Q: What about the TGI (NCI-H460 lung) of the same compound?
A: The TGI was 2070 nM.

Q: What about the GI50 (NCI-H522 lung) of the same compound?
A: The GI50 was 302 nM.

Q: And the TGI (NCI-H522 lung)?
A: Its TGI is 1680 nM.

Q: And the GI50 (NCI/ADR-RES ovarian)?
A: The GI50 was 370 nM.

Q: And the TGI (NCI/ADR-RES ovarian)?
A: Its TGI is 4590 nM.

Q: And the GI50 (OVCAR-3 ovarian)?
A: Its GI50 is 1150 nM.

Q: What about the TGI (OVCAR-3 ovarian) of the same compound?
A: The TGI was 3850 nM.

Q: What about the GI50 (OVCAR-4 ovarian) of the same compound?
A: The GI50 was 1250 nM.

Q: And the TGI (OVCAR-4 ovarian)?
A: Its TGI is 6090 nM.

Q: What about the GI50 (OVCAR-5 ovarian) of the same compound?
A: The GI50 was 1360 nM.

Q: What about the TGI (OVCAR-5 ovarian) of the same compound?
A: The TGI was 12800 nM.

Q: What about the GI50 (OVCAR-8 ovarian) of the same compound?
A: The GI50 was 584 nM.

Q: And the TGI (OVCAR-8 ovarian)?
A: The TGI was 4160 nM.

Q: And the GI50 (RPMI-8226 leukemia)?
A: Its GI50 is 1070 nM.

Q: And the TGI (RPMI-8226 leukemia)?
A: The TGI was 10300 nM.

Q: And the GI50 (RXF 393 renal)?
A: Its GI50 is 741 nM.

Q: What about the TGI (RXF 393 renal) of the same compound?
A: The TGI was 2300 nM.

Q: What about the GI50 (SF-268 CNS) of the same compound?
A: The GI50 was 1310 nM.

Q: And the TGI (SF-268 CNS)?
A: The TGI was 3910 nM.

Q: What about the GI50 (SF-295 CNS) of the same compound?
A: Its GI50 is 1020 nM.

Q: What about the TGI (SF-295 CNS) of the same compound?
A: Its TGI is 2600 nM.

Q: What about the GI50 (SF-539 CNS) of the same compound?
A: Its GI50 is 1460 nM.

Q: And the TGI (SF-539 CNS)?
A: Its TGI is 3650 nM.

Q: And the GI50 (SK-MEL-2 melanoma)?
A: Its GI50 is 1620 nM.

Q: And the TGI (SK-MEL-2 melanoma)?
A: The TGI was 3950 nM.

Q: What about the GI50 (SK-MEL-28 melanoma) of the same compound?
A: The GI50 was 1470 nM.

Q: And the TGI (SK-MEL-28 melanoma)?
A: Its TGI is 5720 nM.

Q: What about the GI50 (SK-MEL-5 melanoma) of the same compound?
A: Its GI50 is 822 nM.

Q: What about the TGI (SK-MEL-5 melanoma) of the same compound?
A: The TGI was 2100 nM.

Q: And the GI50 (SK-OV-3 ovarian)?
A: The GI50 was 1440 nM.

Q: And the TGI (SK-OV-3 ovarian)?
A: The TGI was 2880 nM.

Q: What about the GI50 (SNB-19 CNS) of the same compound?
A: Its GI50 is 2070 nM.

Q: And the TGI (SNB-19 CNS)?
A: The TGI was 7570 nM.

Q: And the GI50 (SNB-75 CNS)?
A: Its GI50 is 1410 nM.

Q: What about the TGI (SNB-75 CNS) of the same compound?
A: Its TGI is 3710 nM.

Q: What about the GI50 (SR leukemia) of the same compound?
A: The GI50 was 784 nM.

Q: What about the TGI (SR leukemia) of the same compound?
A: Its TGI is 61000 nM.

Q: What about the GI50 (SW-620 colon) of the same compound?
A: The GI50 was 412 nM.

Q: And the TGI (SW-620 colon)?
A: Its TGI is 2230 nM.

Q: And the GI50 (T-47D breast)?
A: The GI50 was 809 nM.

Q: And the TGI (T-47D breast)?
A: Its TGI is 5410 nM.

Q: What about the GI50 (TK-10 renal) of the same compound?
A: The GI50 was 1280 nM.

Q: What about the TGI (TK-10 renal) of the same compound?
A: The TGI was 2890 nM.

Q: And the GI50 (U251 CNS)?
A: The GI50 was 963 nM.

Q: And the TGI (U251 CNS)?
A: The TGI was 2280 nM.

Q: And the GI50 (UACC-257 melanoma)?
A: Its GI50 is 640 nM.

Q: And the TGI (UACC-257 melanoma)?
A: The TGI was 2470 nM.

Q: What about the GI50 (UACC-62 melanoma) of the same compound?
A: Its GI50 is 520 nM.

Q: And the TGI (UACC-62 melanoma)?
A: Its TGI is 2640 nM.
